Laboratory results from US8232253B2, “Treatment of lung cancer” (Ramot at Tel-Aviv University Ltd., priority 2006, dated 2012).

Tests used:
A549 cells [1] = experiment: Drug combination experiments, live cell counting; assay type: cell-based, human; settings: FTS alone 40 μM
Method: In drug combination experiments, cells were grown for 2 days in the absence or in the presence of 40 μM FTS and were then treated for 4 h with gemcitabine (100 or 200 nM), cisplatin (50 or 100 nM), doxorubicin (50 or 100 nM), or paclitaxel (2.5 or 5 nM). Live cells were counted after a further 3 days of incubation with or without FTS. Experiments were performed twice in quadruplicate. To determine whether A549 cells were resistant to apoptosis, an experiment to examine the survival of human lung cancer A549 cells after exposure to a chemotherapeutic agent in the presence of FTS was performed. Thus, to determine whether treatment with FTS can increase the sensitivity of A549 cells to cytotoxic drugs, A549 cells were incubated for 48 h with DMSO (control) or with 40 μM FTS, then for 4 h with gemcitabine, cisplatin, doxorubicin, or paclitaxel at the indicated concentrations. The cells were then washed and incubated for a further 72 h with DMSO or with 40 μM FTS. Live cells were collected and counted. The numbers of cells in the drug-treated cultures, expressed as percentages of the numbers in the vehicle-treated control, are shown in FIGS. 13A-13D. Values are means±SD. *P<0.05, **P<0.01, compared to vehicle-treated control.

A549 cells [2] = experiment: Anchorage-independent colony formation assay in soft agar; assay type: cell-based; settings: Homo sapiens, A549, 456 h, 19 days, read-out: inhibition of A549 cell growth in soft agar
Method: Noble agar (2% and 0.6%; Difco, Detroit, Mich.) was prepared in water and autoclaved. The 2% agar was melted in a microwave oven, mixed 1:1 with medium (×2 Kaighn's modification of Ham's F-12 medium with 20% FCS, 100 U/ml penicillin, and 0.1 mg/ml streptomycin) and poured onto 96-well plates (50 μl per well) to provide the 1% base agar. The 0.6% agar (5 ml) was mixed with 5 ml of medium (×2), containing 8×10^4 A549 cells, and the mixture (50 μl) was plated on top of the base agar. The cells were incubated for 19 days at 37° C. with or without the indicated concentrations of FTS (6 wells for the control and for each treatment) and colonies were stained with MTT (1 mg/ml for 4 h). The colonies were then visualized by light microscopy, imaged, and counted using the ImagePro software. Next, to determine the effect of FTS on the anchorage-independent growth of A549 cells, a soft agar assay was performed. The cells were seeded in soft agar and treated with increasing concentrations of FTS 0 μM, 50 μM and 100 μM (FIGS. 12A-12B). Control cells were treated with 0.1% Me2SO4 (DMSO). FTS inhibited A549 cell growth in soft agar by 27±5.5% and 58±21% at 50 μM and 100 μM FTS, respectively. Thus, FTS inhibited the anchorage-independent growth of A549 cells.

A549 cells [3] = experiment: Cell growth by direct cell counting; assay type: cell-based; settings: Homo sapiens, A549, 144 h, cells grown 6 days with FTS, read-out: FTS concentration giving a decrease of 50% in A549 cell growth
Method: FTS was provided by Concordia Pharmaceuticals, Inc. (Ft. Lauderdale, Fla.). All cell lines were obtained from American Type Culture Collection (“ATCC”) (Manassas, Va.). A549 cells, non-small-cell lung carcinoma (CCL, ATCC) cells, were cultured in Kaighn's modification of Ham's F-12 medium containing 1.5 g/l sodium bicarbonate, 10% fetal calf serum (FCS), 100 U/ml penicillin, and 100 μg/ml streptomycin. HTB54 lung carcinoma cells were cultured in McCoy's 5A medium with 10% FCS, 100 U/ml penicillin, and 10 μg/ml streptomycin. […] Cells were treated with the indicated concentrations of FTS (Concordia Pharmaceuticals, Sunrise Fla.) or with 0.1% Me2SO4 (DMSO) (vehicle) 24 h after plating and were counted 5 days later. Dead cells were counted after addition of Hoechst 33258 dye (Sigma-Aldrich, St. Louis, Mo.); 1 μg/ml) to vehicle-treated control cultures or to cultures treated for 24 or 48 h with 75 μM FTS. Fluorescence images were collected 5 min after the dye was added.
To investigate the effect of FTS on lung cancer cell proliferation, we first incubated A549 cells that harbor the activated K-ras gene mutated at codon 12. […] The number of cells in the FTS-treated cultures was determined by direct counting of A549 cells grown for 6 days in the presence of FTS and was expressed as a percentage of the number recorded in the controls. […]

IC50 (A549 cells [3]): 40 µM
Compound: CC(C)=CCC/C(C)=C/CC/C(C)=C/CSc1ccccc1C(=O)O [FTS, S-farnesylthiosalicylic acid]
reduction in cell numbers (mean±SD) (A549 cells [1]; cisplatin experiment (FIG. 13C)): 33±9.5%
reduction in cell numbers (mean±SD) (A549 cells [1]; gemcitabine experiment (FIG. 13A)): 25±6.3%
inhibition at 50 µM (A549 cells [2]; 50 μM FTS): 27 ± 5.5%
inhibition at 100 µM (A549 cells [2]; 100 μM FTS): 58 ± 21%
